According to ChEMBL document CHEMBL5370607 (J Med Chem, 2023):
Calls of active or inactive are those of the source. The rule behind the calls is not given here.

Columns and labels:
[1] = molecular target: T1, Amine oxidase [flavin-containing] B (Homo sapiens, UniProt P27338); details: 0.5 h, time 30 min
T1 sequence (P27338 whole entry): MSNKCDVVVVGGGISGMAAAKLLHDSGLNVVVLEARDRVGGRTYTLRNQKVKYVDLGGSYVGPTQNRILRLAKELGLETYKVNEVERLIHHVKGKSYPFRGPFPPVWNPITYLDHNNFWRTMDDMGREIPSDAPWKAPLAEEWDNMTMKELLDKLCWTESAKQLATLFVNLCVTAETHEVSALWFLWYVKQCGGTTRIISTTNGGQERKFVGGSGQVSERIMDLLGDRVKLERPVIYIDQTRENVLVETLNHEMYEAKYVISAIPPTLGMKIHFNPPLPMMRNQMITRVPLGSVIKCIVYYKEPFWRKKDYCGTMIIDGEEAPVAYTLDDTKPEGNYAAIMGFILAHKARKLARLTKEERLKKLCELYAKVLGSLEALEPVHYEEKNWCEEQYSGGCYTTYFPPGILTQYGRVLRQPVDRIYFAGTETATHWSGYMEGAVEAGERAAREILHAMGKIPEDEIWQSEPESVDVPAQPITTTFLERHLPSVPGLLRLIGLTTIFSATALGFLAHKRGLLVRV

Rattus norvegicus = assay: Antialzheimer activity against scopolamine-induced cognitive impairment in Sprague-Dawley rat assessed as reduction in short-term memory deficits at 1 to 3 mg/kg, ip administered for 30 mins followed by scopolamine induction measured after 30 mins by NOR test; format: functional, organism-based; details: dose 1-3 mg/kg, time 60.0 min

inhibition at 1 µM [1]	Compound	Activity (Rattus norvegicus)
7%	Clc1cccc(CNc2cc(N3CCNCC3)nc3ccccc23)c1	–
–	COc1cc2c(cc1OC)C(=O)C(CC1CCN(Cc3ccccc3)CC1)C2 (stereo not drawn)	Active
3%	Clc1cccc(CNc2ccnc(N3CCNCC3)c2)c1	–
